Source: paper PMC4581874 (PLoS ONE, 2015)

Legend:
[1] = target: T1, VEGFR-2 (Homo sapiens, UniProt P35968); assay: In vitro kinase assay, VEGFR-2; type: biochemical
T1 construct: purchased Millipore UK Ltd., Dundee, UK (now Eurofins Scientific); KinaseProfiler / IC50 Profiler service
Protocol: (§1) All kinase assays were carried out using KinaseProfiler^TM and IC50 Profiler^TM (Millipore UK Ltd., Dundee, UK. Now Eurofins Scientific, Dundee, UK). All IC50 data were presented as the mean values. The Curves obtained to determine IC50 values were shown in Supporting Information (S1 Fig).

[2] = target: T2, CDK1/cyclin B (h) (Homo sapiens, UniProt P06493); assay: Kinase profile, CDK1/cyclin B; type: biochemical; settings: mean ± S.D.
T2 construct: purchased Millipore (now Eurofins) KinaseProfiler / IC50 Profiler
Protocol: as §1

[3] = target: T3, PKCι (h) (Homo sapiens, UniProt P41743); assay: Kinase profile, PKCι; type: biochemical; settings: mean ± S.D.
T3 construct: purchased Millipore (now Eurofins) KinaseProfiler / IC50 Profiler
Protocol: as §1

[4] = target: T4, MAPK2 (h) (Homo sapiens, UniProt P28482); assay: Kinase profile, MAPK2; type: biochemical; settings: mean ± S.D.
T4 construct: purchased Millipore (now Eurofins) KinaseProfiler / IC50 Profiler
Protocol: as §1

[5] = target: T5, CDK3/cyclin E (h) (Homo sapiens, UniProt Q00526); assay: Kinase profile, CDK3/cyclin E; type: biochemical; settings: mean ± S.D.
T5 construct: purchased Millipore (now Eurofins) KinaseProfiler / IC50 Profiler
Protocol: as §1

[6] = tested on: phosphorylated EGFR; assay: Western blot of EGFR phosphorylation in HCC827 cells; type: cell-based; settings: 3 h
Protocol: Fig 3 MKP101 inhibits proliferation of epidermal growth factor receptor (EGFR)-tyrosine kinase inhibitor (TKI)-sensitive non-small cell lung cancer (NSCLC) cells. (A) Inhibition of HCC827 cell proliferation. Cells were incubated for 72 h with a range of concentrations of MKP101, and cell viability was measured using the WST-1 assay. […] (B) Inhibition of EGFR phosphorylation in HCC827 cells. Western blot analysis using antibodies to phosphorylated and total EGFR from a representative experiment is shown. Cells were incubated for 3 h at the indicated concentration. (C) Graph showing the relative intensities of the total and phosphorylated EGFR as determined by band densitometry. IC50, half-maximal inhibitory concentration.

[7] = target: T6, CaMKIIγ (h) (Homo sapiens, UniProt Q13555); assay: Kinase profile, CaMKIIγ; type: biochemical; settings: mean ± S.D.
T6 construct: purchased Millipore (now Eurofins) KinaseProfiler / IC50 Profiler
Protocol: as §1

[8] = target: T7, PKCδ (h) (Homo sapiens, UniProt Q05655); assay: Kinase profile, PKCδ; type: biochemical; settings: mean ± S.D.
T7 construct: purchased Millipore (now Eurofins) KinaseProfiler / IC50 Profiler
Protocol: as §1

[9] = target: T8, VEGFR-1 (Homo sapiens, UniProt P17948); assay: In vitro kinase assay, VEGFR-1; type: biochemical
T8 construct: purchased Millipore UK Ltd., Dundee, UK (now Eurofins Scientific); KinaseProfiler / IC50 Profiler service
T8 sequence (P17948 27-1338): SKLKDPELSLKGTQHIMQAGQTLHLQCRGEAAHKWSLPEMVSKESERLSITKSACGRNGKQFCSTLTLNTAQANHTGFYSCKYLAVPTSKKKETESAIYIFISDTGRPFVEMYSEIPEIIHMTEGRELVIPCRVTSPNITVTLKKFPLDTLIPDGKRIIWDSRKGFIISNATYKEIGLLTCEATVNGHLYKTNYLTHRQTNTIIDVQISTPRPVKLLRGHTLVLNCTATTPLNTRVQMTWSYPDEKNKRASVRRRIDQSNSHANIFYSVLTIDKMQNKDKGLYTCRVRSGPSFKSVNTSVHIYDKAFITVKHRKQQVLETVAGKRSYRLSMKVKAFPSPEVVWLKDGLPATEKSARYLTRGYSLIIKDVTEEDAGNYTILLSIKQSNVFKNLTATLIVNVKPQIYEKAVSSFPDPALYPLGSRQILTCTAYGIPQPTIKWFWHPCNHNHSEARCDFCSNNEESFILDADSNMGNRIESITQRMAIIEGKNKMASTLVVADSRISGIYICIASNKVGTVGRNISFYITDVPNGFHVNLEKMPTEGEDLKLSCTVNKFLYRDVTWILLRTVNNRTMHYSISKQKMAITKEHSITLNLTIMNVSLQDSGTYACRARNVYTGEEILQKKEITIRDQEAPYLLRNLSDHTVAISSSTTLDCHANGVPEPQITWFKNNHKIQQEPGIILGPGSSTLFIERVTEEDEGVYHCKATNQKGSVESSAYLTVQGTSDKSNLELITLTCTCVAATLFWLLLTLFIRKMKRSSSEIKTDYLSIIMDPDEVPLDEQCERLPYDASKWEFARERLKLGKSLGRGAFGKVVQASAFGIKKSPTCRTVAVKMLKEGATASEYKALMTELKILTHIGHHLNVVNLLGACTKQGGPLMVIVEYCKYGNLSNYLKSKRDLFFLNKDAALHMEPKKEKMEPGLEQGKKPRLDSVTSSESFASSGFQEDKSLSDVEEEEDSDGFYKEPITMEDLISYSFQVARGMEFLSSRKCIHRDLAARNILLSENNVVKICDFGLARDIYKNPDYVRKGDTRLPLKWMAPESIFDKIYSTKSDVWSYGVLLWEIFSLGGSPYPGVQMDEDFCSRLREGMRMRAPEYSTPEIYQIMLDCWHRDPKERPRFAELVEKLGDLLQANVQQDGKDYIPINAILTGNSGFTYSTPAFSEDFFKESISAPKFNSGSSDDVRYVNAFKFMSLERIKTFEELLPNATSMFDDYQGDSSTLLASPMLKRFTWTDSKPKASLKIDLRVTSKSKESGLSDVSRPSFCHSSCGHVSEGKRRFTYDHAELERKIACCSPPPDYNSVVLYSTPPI
Protocol: as §1

[10] = target: T9, LKB1 (h) (Homo sapiens, UniProt Q15831); assay: Kinase profile, LKB1; type: biochemical; settings: mean ± S.D.
T9 construct: purchased Millipore (now Eurofins) KinaseProfiler / IC50 Profiler
Protocol: as §1

[11] = target: T10, FLT3 (h) (Homo sapiens, UniProt P36888); assay: Kinase profile, FLT3; type: biochemical; settings: mean ± S.D.
T10 construct: purchased Millipore (now Eurofins) KinaseProfiler / IC50 Profiler
Protocol: as §1

[12] = tested on: HUVECs; assay: HUVEC viability assay (cytotoxicity); type: cell-based, human; settings: 24 hours
Protocol: HCC827 cells were purchased from the American Type Culture Collection (ATCC, Manassas, VA, USA). Cells were grown in RPMI 1640 (Welgene Inc., Daegu, Republic of Korea) supplemented with 10% fetal bovine serum (FBS) (Welgene Inc.) and 1% penicillin-streptomycin (Gibco®, Life Technologies, Carlsbad, CA, USA) in a humidified 5% CO2 atmosphere at 37°C. Human umbilical vein endothelial cells (HUVECs, ScienCell Research Laboratories, Carlsbad, CA, USA) were cultured in endothelial growth medium-2 (EGM-2; Lonza, Walkersville, MD, USA) from passages 3 to 6.
For the HUVEC viability assay, HUVECs were treated with phosphate-buffered saline (PBS) or the indicated concentrations of VEGF inhibitors in EGM-2 medium for 24 hours. After the cells were washed with PBS, they were counted using an inverted light microscope (Nikon Eclipse Ti-U; Nikon Corp., Tokyo, Japan) in 5 random fields from each well.

[13] = target: T11, CDK2/cyclin A (h) (Homo sapiens, UniProt P24941); assay: Kinase profile, CDK2/cyclin A; type: biochemical; settings: mean ± S.D.
T11 construct: purchased Millipore (now Eurofins) KinaseProfiler / IC50 Profiler
Protocol: as §1

[14] = target: EGFR (Homo sapiens, UniProt P00533); assay: In vitro kinase assay, EGFR; type: biochemical
EGFR, sequence (P00533 25-1210): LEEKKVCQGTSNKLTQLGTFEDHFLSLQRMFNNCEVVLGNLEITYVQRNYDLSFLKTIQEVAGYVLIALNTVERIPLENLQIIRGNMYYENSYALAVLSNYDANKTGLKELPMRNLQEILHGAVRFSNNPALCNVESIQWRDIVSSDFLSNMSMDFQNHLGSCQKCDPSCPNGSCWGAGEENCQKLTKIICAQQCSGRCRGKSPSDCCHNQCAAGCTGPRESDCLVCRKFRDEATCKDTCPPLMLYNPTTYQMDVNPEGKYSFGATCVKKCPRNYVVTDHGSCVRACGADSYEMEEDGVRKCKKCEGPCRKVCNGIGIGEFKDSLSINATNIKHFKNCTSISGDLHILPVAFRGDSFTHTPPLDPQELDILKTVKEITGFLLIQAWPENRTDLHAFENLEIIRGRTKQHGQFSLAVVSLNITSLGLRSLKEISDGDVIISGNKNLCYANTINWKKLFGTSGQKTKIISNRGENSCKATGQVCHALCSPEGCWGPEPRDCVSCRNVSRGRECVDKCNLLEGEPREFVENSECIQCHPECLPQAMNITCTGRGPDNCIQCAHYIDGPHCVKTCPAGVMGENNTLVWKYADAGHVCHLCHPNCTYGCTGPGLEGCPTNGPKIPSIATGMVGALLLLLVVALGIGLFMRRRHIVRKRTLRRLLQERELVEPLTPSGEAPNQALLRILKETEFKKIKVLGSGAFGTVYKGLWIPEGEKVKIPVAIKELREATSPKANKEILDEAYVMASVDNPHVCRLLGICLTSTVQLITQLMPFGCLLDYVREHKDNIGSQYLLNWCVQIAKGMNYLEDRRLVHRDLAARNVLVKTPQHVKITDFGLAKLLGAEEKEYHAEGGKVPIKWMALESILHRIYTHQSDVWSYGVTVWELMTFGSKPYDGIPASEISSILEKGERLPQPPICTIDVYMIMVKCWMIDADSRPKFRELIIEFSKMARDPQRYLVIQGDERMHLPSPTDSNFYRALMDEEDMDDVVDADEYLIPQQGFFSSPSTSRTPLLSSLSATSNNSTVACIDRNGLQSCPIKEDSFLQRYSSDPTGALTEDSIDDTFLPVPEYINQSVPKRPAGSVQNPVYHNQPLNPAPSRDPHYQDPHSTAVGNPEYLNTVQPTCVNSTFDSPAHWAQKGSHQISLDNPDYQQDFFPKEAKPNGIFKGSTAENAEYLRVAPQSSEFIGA
Protocol: All kinase assays were carried out using KinaseProfiler^TM and IC50 Profiler^TM (Millipore UK Ltd., Dundee, UK. Now Eurofins Scientific, Dundee, UK). All IC50 data were presented as the mean values.

[15] = target: T12, CDK5/p25 (h) (Homo sapiens, UniProt Q00535); assay: Kinase profile, CDK5/p25; type: biochemical; settings: mean ± S.D.
T12 construct: purchased Millipore (now Eurofins) KinaseProfiler / IC50 Profiler
Protocol: as §1

[16] = target: T13, EGFR (L858R) (Homo sapiens, UniProt P00533, L858R); assay: In vitro kinase assay, EGFR (L858R); type: biochemical
T13 construct: purchased Millipore UK Ltd., Dundee, UK (now Eurofins Scientific); KinaseProfiler / IC50 Profiler service
T13 sequence (P00533 25-1210 L858R): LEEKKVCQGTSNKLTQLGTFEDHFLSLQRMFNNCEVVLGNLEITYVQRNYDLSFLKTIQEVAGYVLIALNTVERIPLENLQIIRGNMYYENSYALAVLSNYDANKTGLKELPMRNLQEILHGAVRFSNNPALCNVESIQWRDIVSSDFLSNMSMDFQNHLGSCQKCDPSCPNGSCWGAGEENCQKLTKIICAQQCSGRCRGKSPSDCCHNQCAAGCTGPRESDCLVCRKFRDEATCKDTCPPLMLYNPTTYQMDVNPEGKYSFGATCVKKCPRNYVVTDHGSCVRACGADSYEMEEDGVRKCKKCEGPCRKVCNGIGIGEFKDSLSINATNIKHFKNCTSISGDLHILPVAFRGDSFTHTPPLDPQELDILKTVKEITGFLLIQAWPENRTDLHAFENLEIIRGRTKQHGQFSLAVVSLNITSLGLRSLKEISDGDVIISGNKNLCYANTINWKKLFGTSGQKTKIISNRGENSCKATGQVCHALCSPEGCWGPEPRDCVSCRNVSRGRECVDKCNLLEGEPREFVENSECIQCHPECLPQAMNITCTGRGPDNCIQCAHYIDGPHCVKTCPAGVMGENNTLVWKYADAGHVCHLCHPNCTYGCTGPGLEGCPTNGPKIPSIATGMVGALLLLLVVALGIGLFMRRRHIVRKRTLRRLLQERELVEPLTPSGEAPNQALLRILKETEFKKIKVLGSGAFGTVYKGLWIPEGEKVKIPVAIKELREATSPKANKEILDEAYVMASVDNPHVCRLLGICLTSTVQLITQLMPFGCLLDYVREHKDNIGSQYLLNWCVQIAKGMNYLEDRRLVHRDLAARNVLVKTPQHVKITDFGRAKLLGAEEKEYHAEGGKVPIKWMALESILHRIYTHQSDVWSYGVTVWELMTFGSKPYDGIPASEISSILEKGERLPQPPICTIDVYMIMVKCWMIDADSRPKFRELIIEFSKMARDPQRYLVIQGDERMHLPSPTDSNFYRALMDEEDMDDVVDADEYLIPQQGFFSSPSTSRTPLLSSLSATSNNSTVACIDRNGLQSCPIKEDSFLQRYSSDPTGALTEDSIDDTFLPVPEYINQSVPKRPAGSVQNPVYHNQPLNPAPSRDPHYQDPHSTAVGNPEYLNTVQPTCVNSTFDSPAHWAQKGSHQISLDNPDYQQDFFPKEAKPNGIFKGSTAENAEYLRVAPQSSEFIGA
Protocol: as §1

[17] = target: T14, Lyn (h) (Homo sapiens, UniProt P07948); assay: Kinase profile, Lyn; type: biochemical; settings: mean ± S.D.
T14 construct: purchased Millipore (now Eurofins) KinaseProfiler / IC50 Profiler
Protocol: as §1

[18] = target: T15, PKA (h) (Homo sapiens, UniProt P17612); assay: Kinase profile, PKA; type: biochemical; settings: mean ± S.D.
T15 construct: purchased Millipore (now Eurofins) KinaseProfiler / IC50 Profiler
Protocol: as §1

[19] = in vitro kinase assay, mean values

T1 sequence (P35968 20-1356): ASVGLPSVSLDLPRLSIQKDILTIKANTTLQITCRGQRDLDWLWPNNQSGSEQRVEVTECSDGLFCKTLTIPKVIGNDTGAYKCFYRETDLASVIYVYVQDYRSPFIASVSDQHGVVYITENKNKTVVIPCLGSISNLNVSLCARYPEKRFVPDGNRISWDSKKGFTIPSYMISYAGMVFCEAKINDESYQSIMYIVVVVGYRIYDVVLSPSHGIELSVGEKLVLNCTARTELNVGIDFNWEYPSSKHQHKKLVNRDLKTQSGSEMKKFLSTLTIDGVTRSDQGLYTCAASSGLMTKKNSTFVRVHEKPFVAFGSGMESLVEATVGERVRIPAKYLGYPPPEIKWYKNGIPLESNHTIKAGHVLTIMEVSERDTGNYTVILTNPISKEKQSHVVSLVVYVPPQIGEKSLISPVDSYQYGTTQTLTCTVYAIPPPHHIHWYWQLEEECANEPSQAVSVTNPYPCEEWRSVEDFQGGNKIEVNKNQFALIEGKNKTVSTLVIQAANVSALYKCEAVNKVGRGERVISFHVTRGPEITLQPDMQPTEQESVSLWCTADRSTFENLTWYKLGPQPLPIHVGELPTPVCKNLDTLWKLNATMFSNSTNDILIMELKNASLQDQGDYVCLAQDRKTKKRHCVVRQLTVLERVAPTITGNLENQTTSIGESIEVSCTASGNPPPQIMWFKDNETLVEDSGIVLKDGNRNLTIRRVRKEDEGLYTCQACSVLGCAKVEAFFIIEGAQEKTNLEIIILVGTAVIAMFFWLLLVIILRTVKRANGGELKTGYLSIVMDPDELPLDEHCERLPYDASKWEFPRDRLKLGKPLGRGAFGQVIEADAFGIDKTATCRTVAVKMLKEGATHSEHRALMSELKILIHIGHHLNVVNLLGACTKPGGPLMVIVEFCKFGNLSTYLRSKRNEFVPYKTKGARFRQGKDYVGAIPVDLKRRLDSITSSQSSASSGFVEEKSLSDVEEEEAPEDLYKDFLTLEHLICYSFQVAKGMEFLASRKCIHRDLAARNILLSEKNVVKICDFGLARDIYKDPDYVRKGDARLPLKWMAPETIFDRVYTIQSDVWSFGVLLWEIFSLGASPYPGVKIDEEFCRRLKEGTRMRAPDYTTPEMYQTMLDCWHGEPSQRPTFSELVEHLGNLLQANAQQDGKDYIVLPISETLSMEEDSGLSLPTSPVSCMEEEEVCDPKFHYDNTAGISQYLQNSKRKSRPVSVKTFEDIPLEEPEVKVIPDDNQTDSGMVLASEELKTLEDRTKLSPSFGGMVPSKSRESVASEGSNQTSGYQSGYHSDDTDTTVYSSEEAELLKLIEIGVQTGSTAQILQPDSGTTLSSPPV

inhibition at 1 µM ([1]; 1 μM, mean ± S.D., read-out: % inhibition at 1 μM, VEGFR-2 (h)): 94 ± 2% | IC50 ([1]; in vitro kinase assay): 32 nM | inhibition at 1 µM [2]: 18 ± 8% | inhibition at 1 µM [3]: 5 ± 6% | inhibition at 1 µM [4]: 0% | inhibition at 1 µM [5]: 6 ± 2% | inhibition at 1 µM [7]: 37 ± 2% | inhibition at 1 µM [8]: 0% | inhibition at 1 µM ([9]; 1 μM, mean ± S.D., read-out: % inhibition at 1 μM, VEGFR-1 (h)): 99% | IC50 ([9]; in vitro kinase assay): 3 nM | inhibition at 1 µM [10]: 0% | inhibition at 1 µM [11]: 91 ± 1% | inhibition at 1 µM [13]: 12 ± 8% | inhibition at 1 µM ([14]; 1 μM, mean ± S.D., read-out: % inhibition at 1 μM, EGFR(h)): 96 ± 2% | IC50 [14, 19]: 43 nM | inhibition at 1 µM [15]: 47 ± 2% | inhibition at 1 µM ([16]; 1 μM, mean ± S.D., read-out: % inhibition at 1 μM, EGFR(L858R)(h)): 96 ± 1% | IC50 [16, 19]: 17 nM | inhibition at 1 µM [17]: 98 ± 1% | inhibition at 1 µM [18]: 7 ± 6%
SMILES: Cc1ccc(Nc2nccc(N(C)c3ccc4[nH]ccc4c3)n2)cc1S(N)(=O)=O [MKP101]
Inhibition of EGFR phosphorylation [6]: reduced the levels of phosphorylated EGFR | Cytotoxicity in HUVECs ([12]; 1 μg/mL): No cytotoxicity was observed | Cytotoxicity in HUVECs ([12]; 5 and 10 μg/mL): significant endothelial cytotoxicity
